Legend:
SCF-Skp2 (Skp2-Cks1) = target: T1, SCF-Skp2 (Skp2-Cks1) (Homo sapiens, UniProt P61024+Q13309); assay: In vitro ubiquitylation assay, Skp2-mediated p27 ubiquitylation (Wild-Type Cks1); assay type: biochemical; details: 50 μM compound, immunoblot for p27-(Ub)n
T1 construct: made in house; host or cells: cell-free: rabbit reticulocyte lysate (TNT T7 Coupled Reticulocyte Lysate System, Promega) from pcDNA3.1 plasmids
Experimental: The 96 hits were tested in an in vitro ubiquitylation assay driven by in vitro transcribed/translated Skp2, Cks1, and p27 (Sitry et al., “Three Different Binding Sites of Cks1 are Required for p27-ubiquitin Ligation,” J. Biol. Chem. 277:42233-42240 (2002)). Assay sensitivity was established for various criteria (FIG. 1B): Enhanced ubiquitylation with Cks1 (lane 2), kinase activity requirement (lane 3), and responsiveness to known inhibitors of Cullin (lane 5) or Cdk2 (lane 6) activity (Meijer et al., “Biochemical and Cellular Effects of Roscovitine, a Potent and Selective Inhibitor of the Cyclin-dependent Kinases cdc2, cdk2 and cdk5,” Eur. J. Biochem. 243:527-536 (1997); Soucy et al., “An Inhibitor of NEDD8-activating Enzyme as a New Approach to Treat Cancer,” Nature 458:732-736 (2009), which are hereby incorporated by reference in their entirety). Compounds showing at least 50% inhibition of Skp2-mediated p27 ubiquitylation (FIG. 1C) were counter-screened for inactivity against two anti-target E3 ligases: MDM2 and SCF-βTrCP (FIGS. 6A-B). Compounds C1 and C2 were identified from the primary VLS and C16 and C20 were identified from a second VLS (FIG. 2).
(§1) In vitro reconstituted assays were performed as previously described (Dorrello et al., “S6K1- and betaTRCP-mediated Degradation of PDCD4 Promotes Protein Translation and Cell Growth,” Science 314:467-471 (2006), which is hereby incorporated by reference in their entirety) with the exceptions of the use of (1) unlabeled proteins (wild-type and mutant Skp2 and Cks1, p27, Flag-βTrCP, and HA-PDCD4) generated by in vitro transcription-translation (TNT T7 Coupled Reticulocyte Lysate System, Promega); (2) chain elongation with non-methylated ubiquitin; and (3) immunoblotting to detect poly-ubiquitylation. The following reagents were obtained from Boston Biochem: UBE1, His-UbcH3, His-UbcH5c, Ubiquitin, and Ubiquitin Aldehyde. Additional reagents include CDK2/CyclinE1 (Sigma-Aldrich), S6K (Invitrogen), Okadaic acid (Sigma), and DMSO (Sigma-Aldrich). For ubiquitin charging, UBE1 (100 nM) and His-UbcH3 (10 ng/μl) were incubated with ubiquitin (2.5 μg/μl), ATP (2 mM), and 10 μM […] of inhibitors or Vehicle control for 60 min at 30° C. Reactions were stopped in nondenaturing 2× Sample Buffer, with the addition of 10% Beta-mercaptoethanol as indicated, and analyzed by Western blotting.

SCF-βTrCP = assay: β-TrCP PDCD4 in vitro ubiquitylation counter-screen; assay type: biochemical; details: 50 μM inhibitor
Experimental: as §1

MCF-7 = assay: Cell cycle FACS analysis, MCF-7; assay type: cell-based, human
Experimental: Whole cell extracts were prepared and immunoblotted as previously described Dorrello et al., “S6K1- and betaTRCP-mediated Degradation of PDCD4 Promotes Protein Translation and Cell Growth,” Science 314:467-471 (2006), which is hereby incorporated by reference in its entirety. For knockdown of Skp2 or p27, shRNAs were induced with 2 ng/ml doxycycline for 48 hours, with the last 16 hours co-treated with 0.1% Vehicle or 10 μM inhibitors as indicated. For cycloheximide chase, cells were pretreated 16 h with 0.1% Vehicle or 10 μM inhibitors, followed by 20 ng/ml cycloheximide (Sigma) and whole cell extracts collected for each time point. 20 ng/ml cycloheximide (Sigma) was added to each plate and whole cell extract was collected for each time point. Scanning densitometry was performed on immunoblots using Image J software. […] 1×10^6 cells were fixed in 70% ethanol for 2 h, treated with 200 μg/ml RNase A (Invitrogen) for 30 minutes, and stained with 20 μg/ml Propidium Iodine (Sigma). All samples were assayed in triplicates. Signal was detected using the Becton Dickson LSRII flow cytometer and cell cycle profiles were analyzed with FloJo.

Caspase 3 in ECC-1 cells = assay: ECC-1 apoptosis (Caspase 3 cleavage immunoblot); assay type: cell-based, human; details: 10 μM, 18 h
Experimental: Whole cell lysates were prepared in ice cold RIPA buffer (50 mM Tris-HCL, 150 mM NaCl, 0.25% sodium deoxycholate, 1% NP-40 and 1 mM EDTA) containing 1 mM Na3VO4, pH 7.4) and 1× Protease Inhibitor Cocktail (Sigma Chem, St Louis, Mo.). Following freezing and thawing once, and soluble proteins obtained by centrifugation at 14,000×g for 10 min at 4° C. Protein concentrations were quantified (BCA kit, Thermo Scientific, Rockland, Ill.) and 20 μg protein in Laemmli buffer were subjected to SDS-PAGE (12.5% polyacrylamide) and immunoblotted using anti-p27 and anti-Skp2 antibodies to probe protein levels, as described (Lecanda et al., “TGFbeta Prevents Proteasomal Degradation of the Cyclin-dependent Kinase Inhibitor p27kip1 for Cell Cycle Arrest,” Cell Cycle 8:742-756 (2009), which is hereby incorporated by reference in its entirety). For subcellular fractionation, following treatments, cells were separated into nuclear and cytoplasmic fractions using the NE-PER kit (Thermo Scientific), and 10 μg cytoplasmic and nuclear protein fractions were loaded onto SDS-PAGE for immunoblotting. Following protein transfer onto nitrocellulose membranes, the membrane was blocked with 5% non-fat dry milk in TBS containing 0.1% Tween 20 (TBST) for 1 h, incubated overnight with mouse anti-human p27 (1:1000, Clone 57, BD Transduction Labs) or mouse anti-human p45/Skp2 (1:1000, Clone 8D9, Invitrogen, Grand Island, N.Y.) or rabbit anti-human Caspase-3 antibody (1:500, Clone 8G10, Cell Signaling Technology (Danvers, Mass.)). Purity of the subcellular fractions was confirmed using mouse anti-human α-tubulin (1:10,000, Clone B-5-1-2, Sigma) for cytoplasmic or rabbit anti-human Sp1 (1:1000, Clone H-225, Santa Cruz Biotechnology, Santa Cruz, Calif.) for nuclear fractions. The membranes were incubated with peroxidase-conjugated goat anti-rabbit or goat anti-mouse secondary antibodies in TBST (1:2000; Thermo Scientific).

T1 sequence (Q13309 whole entry): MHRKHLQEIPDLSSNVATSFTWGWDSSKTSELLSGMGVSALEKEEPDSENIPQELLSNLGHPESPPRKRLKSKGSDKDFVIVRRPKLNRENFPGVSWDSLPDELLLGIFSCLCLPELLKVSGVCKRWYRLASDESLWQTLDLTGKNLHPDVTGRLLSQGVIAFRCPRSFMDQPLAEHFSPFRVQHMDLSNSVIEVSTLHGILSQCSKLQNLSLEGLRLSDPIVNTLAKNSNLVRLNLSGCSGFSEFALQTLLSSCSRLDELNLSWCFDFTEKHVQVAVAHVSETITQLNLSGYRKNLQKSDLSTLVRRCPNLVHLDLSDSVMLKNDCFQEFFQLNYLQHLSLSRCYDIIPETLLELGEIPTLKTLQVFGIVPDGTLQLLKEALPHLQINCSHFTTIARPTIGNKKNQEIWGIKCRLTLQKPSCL
T1 sequence (P61024 whole entry): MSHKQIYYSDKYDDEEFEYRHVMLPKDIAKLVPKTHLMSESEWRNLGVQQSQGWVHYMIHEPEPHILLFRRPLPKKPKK
T1 sequence (P63208 whole entry partner): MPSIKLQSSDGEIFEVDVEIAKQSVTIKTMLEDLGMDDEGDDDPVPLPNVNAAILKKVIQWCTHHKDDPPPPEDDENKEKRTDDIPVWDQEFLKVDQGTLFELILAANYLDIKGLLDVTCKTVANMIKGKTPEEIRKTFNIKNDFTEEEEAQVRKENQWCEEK
T1 sequence (Q13616 whole entry partner): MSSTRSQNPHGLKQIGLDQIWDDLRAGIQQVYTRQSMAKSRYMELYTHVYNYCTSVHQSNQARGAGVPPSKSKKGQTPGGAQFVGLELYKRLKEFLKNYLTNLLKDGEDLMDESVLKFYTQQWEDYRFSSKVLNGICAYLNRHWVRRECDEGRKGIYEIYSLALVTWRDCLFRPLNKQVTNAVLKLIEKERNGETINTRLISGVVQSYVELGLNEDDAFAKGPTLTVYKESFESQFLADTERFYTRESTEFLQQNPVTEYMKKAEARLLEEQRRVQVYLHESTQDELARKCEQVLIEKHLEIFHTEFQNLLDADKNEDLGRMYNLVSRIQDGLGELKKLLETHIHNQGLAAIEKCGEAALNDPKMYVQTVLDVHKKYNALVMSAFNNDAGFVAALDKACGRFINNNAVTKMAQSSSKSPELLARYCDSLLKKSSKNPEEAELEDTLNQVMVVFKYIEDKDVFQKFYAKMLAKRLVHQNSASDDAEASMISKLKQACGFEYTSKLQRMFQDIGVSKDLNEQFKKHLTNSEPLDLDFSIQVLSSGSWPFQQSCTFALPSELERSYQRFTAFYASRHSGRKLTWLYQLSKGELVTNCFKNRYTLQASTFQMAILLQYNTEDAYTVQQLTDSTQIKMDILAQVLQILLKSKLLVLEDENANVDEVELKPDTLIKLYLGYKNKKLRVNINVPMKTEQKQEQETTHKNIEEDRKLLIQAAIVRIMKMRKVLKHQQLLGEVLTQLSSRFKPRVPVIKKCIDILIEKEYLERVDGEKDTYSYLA
T1 sequence (P62877 whole entry partner): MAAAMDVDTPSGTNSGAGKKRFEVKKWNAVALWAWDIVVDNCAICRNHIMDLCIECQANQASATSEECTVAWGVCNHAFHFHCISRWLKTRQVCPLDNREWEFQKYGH

Compound	Inhibition of Skp2-mediated p27 ubiquitylation (SCF-Skp2 (Skp2-Cks1))	β-TrCP activity (PDCD4 poly-ubiquitylation) (SCF-βTrCP)	Cellular phenotype (MCF-7)	Caspase 3 cleavage (apoptosis) (Caspase 3 in ECC-1 cells)	Increase in G2-M phase (MCF-7; 5 μM C1 for 16 hours) [%]	Reduction in G1 phase (MCF-7; 5 μM C1 for 16 hours) [%]
O=C(O)COc1ccc(C=C2SC(=O)N(CC(=O)c3ccc(Cl)cc3)C2=O)cc1 [Compound C16]	active	not blocked	no significant cellular phenotype	shows cleavage of caspase 3	–	–
O=C(NN=Cc1cc(Br)cc(Br)c1O)C(=Cc1ccccc1O)NC(=O)c1ccccc1 [Compound C20]	strongly inhibited	not blocked	no significant cellular phenotype	activate caspase 3 to a similar extent as the control	–	–
COC(=O)C1=C(C)N(c2ccc(Br)cc2)C(=O)C1=Cc1ccccc1O [Compound C2]	strongly inhibited	not blocked	no significant cellular phenotype	activate caspase 3 to a similar extent as the control	–	–
O=C(O)COc1ccc(Br)cc1C=C1SC(=S)N(Cc2cccnc2)C1=O [Compound C1]	active	not blocked	–	–	43	35
